{"source": "ChEMBL document CHEMBL4257490", "about": "“Development of a peptide-based bifunctional chelator conjugated to a cytotoxic drug for the treatment of melanotic melanoma” (Medchemcomm, 2018)", "key": {"[1]": {"assay": "Hemolytic activity in rat erythrocytes up to 50 uM after 1 hr relative to control", "type": "ADME, cell-based, Erythrocyte", "settings": "read-out: Activity"}, "[2]": {"assay": "Stability in saline assessed as parent compond remaining using 99mTc(CO)3-labeled compound after 24 hrs by TLC method", "type": "physicochemical", "settings": "read-out: Stability"}, "[3]": {"assay": "Drug uptake in mouse B16F10 cells using 99mTc(CO)3-labeled compound at 15 to 20 MBq/ml after 240 mins by gamma scintillation counting method relative to total added activity", "type": "ADME, cell-based", "settings": "b16-f10, 4 h"}, "[4]": {"assay": "Drug uptake in mouse B16F10 cells using 99mTc(CO)3-labeled compound at 15 to 20 MBq/ml after 30 mins by gamma scintillation counting method", "type": "ADME, cell-based", "settings": "b16-f10, 0.5 h"}, "[5]": {"assay": "Drug uptake in blood of Balb/c mouse allografted with mouse B16F10 cells using 99mTc(CO)3-labeled compound at 10 to 12 MBq/kg, iv measured at 2 hrs", "type": "ADME, organism-based", "settings": "in vivo"}, "[6]": {"assay": "Drug uptake in lung of Balb/c mouse allografted with mouse B16F10 cells using 99mTc(CO)3-labeled compound at 10 to 12 MBq/kg, iv measured at 2 hrs", "type": "ADME, organism-based", "settings": "in vivo"}, "[7]": {"assay": "Drug uptake in spleen of Balb/c mouse allografted with mouse B16F10 cells using 99mTc(CO)3-labeled compound at 10 to 12 MBq/kg, iv measured at 2 hrs", "type": "ADME, organism-based", "settings": "in vivo"}, "[8]": {"assay": "Drug uptake in kidney of Balb/c mouse allografted with mouse B16F10 cells using 99mTc(CO)3-labeled compound at 10 to 12 MBq/kg, iv measured at 2 hrs", "type": "ADME, organism-based", "settings": "in vivo"}, "[9]": {"assay": "Drug uptake in intestine of Balb/c mouse allografted with mouse B16F10 cells using 99mTc(CO)3-labeled compound at 10 to 12 MBq/kg, iv measured at 2 hrs", "type": "ADME, organism-based", "settings": "in vivo"}, "[10]": {"assay": "Drug uptake in stomach of Balb/c mouse allografted with mouse B16F10 cells using 99mTc(CO)3-labeled compound at 10 to 12 MBq/kg, iv measured at 2 hrs", "type": "ADME, organism-based", "settings": "in vivo"}, "[11]": {"assay": "Drug uptake in kidney of Balb/c mouse allografted with mouse B16F10 cells using 99mTc(CO)3-labeled compound at 10 to 12 MBq/kg, iv measured at 4 hrs", "type": "ADME, organism-based", "settings": "in vivo"}, "[12]": {"assay": "Drug uptake in stomach of Balb/c mouse allografted with mouse B16F10 cells using 99mTc(CO)3-labeled compound at 10 to 12 MBq/kg, iv measured at 4 hrs", "type": "ADME, organism-based", "settings": "in vivo"}, "[13]": {"assay": "Drug uptake in urine of Balb/c mouse allografted with mouse B16F10 cells using 99mTc(CO)3-labeled compound at 10 to 12 MBq/kg, iv measured at 4 hrs", "type": "ADME, organism-based", "settings": "in vivo"}, "[14]": {"assay": "Ratio of drug level in tumor to muscle of Balb/c mouse allografted with mouse B16F10 cells using 99mTc(CO)3-labeled compound at 10 to 12 MBq/kg, iv measured at 4 hrs", "type": "ADME, organism-based, Tumor/tissue", "settings": "in vivo"}, "B16-F10 [15]": {"system": "B16-F10", "assay": "Cytotoxicity against mouse B16F10 cells assessed as decrease in cell viability after 72 hrs by MTT assay", "type": "functional, cell-based", "settings": "B16-F10, 72 h"}, "B16-F10 [16]": {"system": "B16-F10", "assay": "Antitumor activity against mouse B16F10 cells allografted in Balb/c mouse assessed as decrease in tumor development at 25 mg/kg, iv administered thrice weekly for 21 days starting on day 10 post tumor implantation by haematoxylin and eosin staining-based method", "type": "functional, organism-based"}, "[17]": {"assay": "Drug uptake in mouse B16F10 cells using 99mTc(CO)3-labeled compound at 15 to 20 MBq/ml after 240 mins by gamma scintillation counting method", "type": "ADME, cell-based", "settings": "b16-f10, 4 h"}}, "note": "The source made the active and inactive calls. The calls are words filed in the database; no cut-off is given here. Residues, ends and D or L forms follow the SMILES beside them. *: point of attachment. X1 = O=c1nc(N*)ccn1[C@@H]1O[C@H](CO)[C@@H](O)C1(F)F", "data": [{"compound": "NCCCC[C@H](NC(=O)CNC(=O)[C@H](Cc1cnc[nH]1)NC(=O)[C@H](CCCCN)NC(=O)[C@H](Cc1ccc(O)cc1)NC(=O)[C@@H](N)Cc1cnc[nH]1)C(=O)N[C@@H](CC(=O)Nc1ccn([C@@H]2O[C@H](CO)[C@@H](O)C2(F)F)c(=O)n1)C(N)=O", "note": "(H-HYKHGKD(X1)-NH2)", "values": [{"measurement": "hemolysis at 1 h", "setting": "[1]", "result": "5 to 6", "unit": "%"}, {"measurement": "remaining at 24 h", "setting": "[2]", "result": "≥ 92", "unit": "%"}, {"measurement": "Drug uptake", "setting": "[3]", "result": 9.87, "unit": "%"}, {"measurement": "Drug uptake", "setting": "[4]", "result": 42.34, "unit": "%"}, {"measurement": "Drug uptake", "setting": "[5]", "result": 1.79, "unit": "%ID/ml"}, {"measurement": "Drug uptake", "setting": "[6]", "result": 0.4, "unit": "% ID/g"}, {"measurement": "Drug uptake", "setting": "[7]", "result": 0.69, "unit": "% ID/g"}, {"measurement": "Drug uptake", "setting": "[8]", "result": 18.96, "unit": "% ID/g"}, {"measurement": "Drug uptake", "setting": "[9]", "result": 8.51, "unit": "% ID/g"}, {"measurement": "Drug uptake", "setting": "[10]", "result": 0.25, "unit": "% ID/g"}, {"measurement": "Drug uptake", "setting": "[11]", "result": 16.25, "unit": "% ID/g"}, {"measurement": "Drug uptake", "setting": "[12]", "result": 0.17, "unit": "% ID/g"}, {"measurement": "Drug uptake", "setting": "[13]", "result": 48.21, "unit": "%ID/ml"}, {"measurement": "Ratio", "setting": "[14]", "result": 18.73}, {"measurement": "IC50", "setting": "B16-F10 [15]", "result": 120, "unit": "nM"}, {"measurement": "Activity", "setting": "B16-F10 [16]", "result": "Active"}, {"measurement": "Drug uptake", "setting": "[17]", "result": 80, "unit": "%"}]}]}
